“Also recorded” adds a separate entry of the source.
Assays:
lined-up hESC-CMs = test: MEA field potential recording of lined-up hESC-CMs (cFPD, CT, their STVs, ISI, beat rate, arrest); format: cell-based, human; settings: for CT: at equivalent concentrations of Nav1.5 IC50; for Arrest: arrest cases/chips
Description: Human embryonic stem cell-derived cardiomyocytes clusters (hES-CMCs) were shipped from Cellectis (hES-CMCTM002, hES cell line SA002, Gothenburg, Sweden)[42],[43], and maintained in Dulbecco’s modified Eagle’s medium (DMEM) supplemented 20% heat-inactivated fetal bovaine serum, 1 mM GlutaMax, 100 U/mL penicillin, 0.1 mg/mL streptomycin, 1% nonessential amino acids and 0.1 mM β-mercaptoethanol (Invitrogen, Carsbad, CA, USA). Dispersed cardiomyocytes were isolated from hES-CMCs by a modification of the methods of Norström et al.[44]–[48]. […] The supernatant was gently aspirated with pipette, and a 5-hold volume of DMEM was added as stop solution. Remaining clusters were treats ed with the above process with several times. The supernatants were collected and centrifuged with 200 × g for 2–3 min at 4 °C. The resulting supernatant including dispersed cells was seeded into agarose microchambers on an MEA chip (MED-P530A; AlphaMED scientific. Co. Ltd., Japan)[40].
The MEA chip surface was prepared as follows. First, the chip surface was coated with collagen type I-C (Nitta Gelatin, Japan). After drying, the chip surface was coated with a 0.1% agarose gel. […] At >30 min before the start of experiment, the medium was changed to 2 mL pre-warmed fresh maintenance medium per chip.
Extracellular potential recordings of the lined-up hESC-CMs were performed using the MEA system at a sampling rate of 10 kHz with a low path filter of 2 kHz and high path filter of 1 Hz, and signals were amplified by 100–50,000 using the amplifier. The MEA chip with lined-up hESC-CMs was set in the FP measurement device and placed in a humidified cell culture incubator at 37 °C, 5% CO2. The signals were analyzed by Igor Pro 6.0 (WaveMetrics, Inc., USA) and FlexPro 7.0 (Weisang GmbH, Germany).
We adopted the same drug administration protocol as we examined previously[40] (Fig. 2B). Briefly, the MEA chips of lined-up cells for experiments were selected from the chips having 0.6–1.1 Hz beating frequency and ventricle-like waveforms of FP recordings (see Fig. 1B,D). The MEA chip was placed in the holder of the FP measurement device, and equilibrated for 5 min, and then the control FP waveforms were recorded for 10 min. Subsequently, the drug was applied to the medium at 1% dilution in serially increasing additions, and the FP waveforms were recorded for 10 min at each concentration. Finally, the drug-containing medium was replaced with fresh medium after washing three times. The last 50 beats extracted from 10 min recorded FP waveform data was used for beat rate, FPD (the time from first depolarization peak to broad repolarization peak) and CT (the time difference of the first peaks between separately placed electrodes in lined-upped cell-network) measurement at each concentration (Fig. 2C).
It was normalized (cFPD) to the beating rate of cardiomyocytes using Bazett’s correction formula based on the comparison of the slope of a plot of inter-spike interval and FPD, or corrected FPD by Bazett’s or Fridericia’s formulae (Fig. 3). The short-term variability (STV) of cFPD and CT, which was defined as the mean distance of points perpendicular to the line of identity in the Poincaré plot, was calculated ( STV=∑|D(n+1)−Dn|/(n×2) , where Dn represents the FPD and CT of n-th beating). STVs were last 50 beat data from 5 min extraction of cFPD and CT. To assess the arrhythmogenicity risk of test drugs, the mean values of cFPD, STVcFPD, CT and STVCT of each drug were plotted.

[1] = cited from earlier work; for EPTC: effective therapeutic plasma concentration
Cav1.2 = settings: read-out: IC50 Cav1.2; cited from earlier work
[2] = Conc. 10^2 nM (0.1 μM), change vs Ctrl.
[3] = Conc. 10^3 nM (1 μM), change vs Ctrl.
[4] = Conc. 10^−1 nM, change vs Ctrl.
[5] = Conc. 10^4 nM (10 μM), change vs Ctrl.
[6] = Conc. 10^5 nM (100 μM), change vs Ctrl.
[7] = Conc. 10^5 nM (100 μM), change vs Ctrl., listed as lidocaine
[8] = Conc. 10^5 nM (100 μM), change vs Ctrl., listed as terfenadine

Cc1cccc(CCN2CCC(C(=O)c3ccc(NS(C)(=O)=O)cc3)CC2)n1 [E-4031]
STVcFPD (lined-up hESC-CMs; 1 μM): more than doubled | BR (beat rate) (lined-up hESC-CMs; Conc. 1 nM, change vs Ctrl.): 3.9% | Cond. Time (CT) (lined-up hESC-CMs; Conc. 1 nM, change vs Ctrl.): −4.3% | ISI (inter-spike interval) (lined-up hESC-CMs; Conc. 1 nM, change vs Ctrl.): −3.7% | STVCT (lined-up hESC-CMs; Conc. 1 nM, change vs Ctrl.): 19% | STVcFPD (lined-up hESC-CMs; Conc. 1 nM, change vs Ctrl.): −3.6% | cFPD (lined-up hESC-CMs; Conc. 1 nM, change vs Ctrl.): 0.69% | BR (beat rate) (lined-up hESC-CMs; Conc. 10 nM, change vs Ctrl.): 4.5% | Cond. Time (CT) (lined-up hESC-CMs; Conc. 10 nM, change vs Ctrl.): 2.1% | ISI (inter-spike interval) (lined-up hESC-CMs; Conc. 10 nM, change vs Ctrl.): −4.2% | STVCT (lined-up hESC-CMs; Conc. 10 nM, change vs Ctrl.): 5.7% | STVcFPD (lined-up hESC-CMs; Conc. 10 nM, change vs Ctrl.): 17% | cFPD (lined-up hESC-CMs; Conc. 10 nM, change vs Ctrl.): 7.1% | Cond. Time (CT) (lined-up hESC-CMs; [2]): 10% | STVCT (lined-up hESC-CMs; [2]): 43% | STVcFPD (lined-up hESC-CMs; [2]): 94% | cFPD (lined-up hESC-CMs; [2]): 30% | cFPD (lined-up hESC-CMs; Conc. 10^2 nM (0.1 μM), change vs Ctrl., listed as E-4301): 30% | BR (beat rate) (lined-up hESC-CMs; Conc. 10^2 nM, change vs Ctrl.): 5.1% | ISI (inter-spike interval) (lined-up hESC-CMs; Conc. 10^2 nM, change vs Ctrl.): −4.7% | Cond. Time (CT) (lined-up hESC-CMs; [3]): 49% | STVcFPD (lined-up hESC-CMs; [3]): 110% | cFPD (lined-up hESC-CMs; [3]): 47% | cFPD (lined-up hESC-CMs; Conc. 10^3 nM (1 μM), change vs Ctrl., listed as E-4301): 47% | BR (beat rate) (lined-up hESC-CMs; Conc. 10^3 nM, change vs Ctrl.): 5.8% | ISI (inter-spike interval) (lined-up hESC-CMs; Conc. 10^3 nM, change vs Ctrl.): −5.1% | BR (beat rate) (lined-up hESC-CMs; [4]): 2.6% | ISI (inter-spike interval) (lined-up hESC-CMs; [4]): −2.5% | STVCT (lined-up hESC-CMs; [4]): 52% | STVcFPD (lined-up hESC-CMs; [4]): 2.9% | cFPD (lined-up hESC-CMs; [4]): 0.52% | Cond. Time (CT) (lined-up hESC-CMs; Conc. 10^−1 nM, change vs Ctrl., 150 μm inter-electrode distance): 8.9% | CT (mean conduction time) (lined-up hESC-CMs; any tested concentration): did not significantly change; also recorded: did not increase

CCN(CC)CC(=O)Nc1c(C)cccc1C [Lidocaine, lidocaine]
EPTC [1]: 5,970–25,603[69] nM | cFPD change (lined-up hESC-CMs; 10–100 μM, P < 0.05): −18% | BR (beat rate) (lined-up hESC-CMs; Conc. 10 nM, change vs Ctrl.): 3.6% | ISI (inter-spike interval) (lined-up hESC-CMs; Conc. 10 nM, change vs Ctrl.): −3.4% | STVCT (lined-up hESC-CMs; Conc. 10 nM, change vs Ctrl.): 46% | STVcFPD (lined-up hESC-CMs; Conc. 10 nM, change vs Ctrl.): 54% | cFPD (lined-up hESC-CMs; Conc. 10 nM, change vs Ctrl.): 9.5% | Cond. Time (CT) (lined-up hESC-CMs; [2]): −6.0% | STVCT (lined-up hESC-CMs; [2]): 43% | STVcFPD (lined-up hESC-CMs; [2]): 38% | cFPD (lined-up hESC-CMs; [2]): 10% | BR (beat rate) (lined-up hESC-CMs; Conc. 10^2 nM, change vs Ctrl.): 4.4% | ISI (inter-spike interval) (lined-up hESC-CMs; Conc. 10^2 nM, change vs Ctrl.): −4.2% | Cond. Time (CT) (lined-up hESC-CMs; [3]): −7.4% | STVCT (lined-up hESC-CMs; [3]): 35% | STVcFPD (lined-up hESC-CMs; [3]): 54% | cFPD (lined-up hESC-CMs; [3]): 9.7% | BR (beat rate) (lined-up hESC-CMs; Conc. 10^3 nM, change vs Ctrl.): 2.8% | ISI (inter-spike interval) (lined-up hESC-CMs; Conc. 10^3 nM, change vs Ctrl.): −2.6% | Cond. Time (CT) (lined-up hESC-CMs; [5]): 4.7% | STVCT (lined-up hESC-CMs; [5]): 134% | STVcFPD (lined-up hESC-CMs; [5]): 345% | cFPD (lined-up hESC-CMs; [5]): −18% | STVCT (lined-up hESC-CMs; Conc. 10^4 nM (10 μM), change vs Ctrl., listed as lidocaine): 134% | BR (beat rate) (lined-up hESC-CMs; Conc. 10^4 nM, change vs Ctrl.): −48% | ISI (inter-spike interval) (lined-up hESC-CMs; Conc. 10^4 nM, change vs Ctrl.): 128% | Cond. Time (CT) (lined-up hESC-CMs; [6]): 22% | STVCT (lined-up hESC-CMs; [6]): 54% | STVcFPD (lined-up hESC-CMs; [6]): 143% | cFPD (lined-up hESC-CMs; [6]): −18% | Cond. Time (CT) (lined-up hESC-CMs; [7]): 22.1% | STVCT (lined-up hESC-CMs; [7]): 54% | BR (beat rate) (lined-up hESC-CMs; Conc. 10^5 nM, change vs Ctrl.): −51% | ISI (inter-spike interval) (lined-up hESC-CMs; Conc. 10^5 nM, change vs Ctrl.): 160% | CT (lined-up hESC-CMs): increased

CC(C)(C)c1ccc(C(O)CCCN2CCC(C(O)(c3ccccc3)c3ccccc3)CC2)cc1 (stereo not drawn) [Terfenadine, terfenadine]
EPTC [1]: 3.3 to 9.7 nM | Unbound ([1]; unbound therapeutic plasma concentration): 0.1 to 0.29 nM | IC50 (Cav1.2): […] | CT increase (lined-up hESC-CMs; 3 μM, n = 4, P < 0.05): 189% | BR (beat rate) (lined-up hESC-CMs; Conc. 10 nM, change vs Ctrl.): 4.6% | Cond. Time (CT) (lined-up hESC-CMs; Conc. 10 nM, change vs Ctrl.): 32% | ISI (inter-spike interval) (lined-up hESC-CMs; Conc. 10 nM, change vs Ctrl.): −4.0% | STVCT (lined-up hESC-CMs; Conc. 10 nM, change vs Ctrl.): 37% | STVcFPD (lined-up hESC-CMs; Conc. 10 nM, change vs Ctrl.): 76% | cFPD (lined-up hESC-CMs; Conc. 10 nM, change vs Ctrl.): 2.3% | Cond. Time (CT) (lined-up hESC-CMs; [2]): 4.0% | STVCT (lined-up hESC-CMs; [2]): 16% | STVcFPD (lined-up hESC-CMs; [2]): −3.4% | cFPD (lined-up hESC-CMs; [2]): 2.8% | BR (beat rate) (lined-up hESC-CMs; Conc. 10^2 nM, change vs Ctrl.): 2.0% | ISI (inter-spike interval) (lined-up hESC-CMs; Conc. 10^2 nM, change vs Ctrl.): −2.0% | Cond. Time (CT) (lined-up hESC-CMs; [3]): 101% | STVCT (lined-up hESC-CMs; [3]): 228% | STVcFPD (lined-up hESC-CMs; [3]): 37% | cFPD (lined-up hESC-CMs; [3]): 0.25% | STVCT (lined-up hESC-CMs; Conc. 10^3 nM (1 μM), change vs Ctrl., listed as terfenadine): 228% | BR (beat rate) (lined-up hESC-CMs; Conc. 10^3 nM, change vs Ctrl.): −3.0% | ISI (inter-spike interval) (lined-up hESC-CMs; Conc. 10^3 nM, change vs Ctrl.): 3.1% | Cond. Time (CT) (lined-up hESC-CMs; [5]): 189% | STVCT (lined-up hESC-CMs; [5]): 511% | STVcFPD (lined-up hESC-CMs; [5]): 65% | cFPD (lined-up hESC-CMs; [5]): −26% | cFPD (lined-up hESC-CMs; Conc. 10^4 nM (10 μM), change vs Ctrl., listed as terfenadine): −26% | Arrest (lined-up hESC-CMs; Conc. 10^4 nM): 3/7 | BR (beat rate) (lined-up hESC-CMs; Conc. 10^4 nM, change vs Ctrl.): −38% | ISI (inter-spike interval) (lined-up hESC-CMs; Conc. 10^4 nM, change vs Ctrl.): 122% | Cond. Time (CT) (lined-up hESC-CMs; [6]): 198% | STVCT (lined-up hESC-CMs; [6]): 143% | STVcFPD (lined-up hESC-CMs; [6]): 243% | cFPD (lined-up hESC-CMs; [6]): −73% | STVcFPD (lined-up hESC-CMs; [8]): 243% | cFPD (lined-up hESC-CMs; [8]): −78% | Arrest (lined-up hESC-CMs; Conc. 10^5 nM): 2/4 | BR (beat rate) (lined-up hESC-CMs; Conc. 10^5 nM, change vs Ctrl.): −88% | ISI (inter-spike interval) (lined-up hESC-CMs; Conc. 10^5 nM, change vs Ctrl.): 744% | FPD (repolarization index) (lined-up hESC-CMs; at 10 times higher than therapeutic plasma concentrations): […] | CT (lined-up hESC-CMs): increased | FPD (lined-up hESC-CMs; concentrations more than 10 μM): FPD shortening

Source: article PMC6162288, “On-chip spatiotemporal electrophysiological analysis of human stem cell derived cardiomyocytes enables quantitative assessment of proarrhythmia in drug development” (Scientific Reports, 2018)
